This is an account of results in patent US7723393B2, “Cycloalkylidene compounds as selective estrogen receptor modulators” (GlaxoSmithKline LLC, priority 2005, dated 2010).

What is called melting point is the temperature of the solid-liquid transition. The molecule `CC1(C)CC(=C(c2ccccc2)c2ccc(OCCO)cc2)CC(C)(C)C1` [Example 3, 2-({4-[Phenyl(3,3,5,5-tetramethylcyclohexylidene)methyl]phenyl}oxy)ethanol] yielded a melting point of 131 to 132 °C. In the case of `CC1(C)CC(=C(c2ccccc2)c2ccc(OCCOCCO)cc2)CC(C)(C)C1` [Example 4, 2-{[2-({4-[Phenyl(3,3,5,5-tetramethylcyclohexylidene)methyl]phenyl}oxy)ethyl]oxy}ethanol] it was 116 to 117 °C; in that of `CC1(C)CC(=C(c2ccc(F)cc2)c2ccc(OCC#N)cc2)CC(C)(C)C1` [Example 7, ({4-[(4-Fluorophenyl)(3,3,5,5-tetramethylcyclohexylidene)methyl]phenyl}oxy)acetonitrile], 100 to 101 °C.
